Measured values taken from PubChem BioAssay (NCI).
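Five concentrations, 48 hours, 96-well plates. At the GI50, growth is halved. At the TGI there is no net growth.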

How the values were obtained:
Experiment in all cases: DTP human tumour cell line panel, 48 h
SN12C renal = test system: SN12C renal
OVCAR-5 ovarian = test system: OVCAR-5 ovarian
UACC-62 melanoma = test system: UACC-62 melanoma
786-0 renal = test system: 786-0 renal
TK-10 renal = test system: TK-10 renal
COLO 205 colon = test system: COLO 205 colon
U251 CNS = test system: U251 CNS
LOX IMVI melanoma = test system: LOX IMVI melanoma
CAKI-1 renal = test system: CAKI-1 renal
T-47D breast = test system: T-47D breast

| SMILES | TGI (SN12C renal) [µM] | TGI (OVCAR-5 ovarian) [µM] | TGI (UACC-62 melanoma) [µM] | TGI (786-0 renal) [µM] | TGI (TK-10 renal) [µM] | TGI (COLO 205 colon) [µM] | TGI (U251 CNS) [µM] | TGI (LOX IMVI melanoma) [µM] | TGI (CAKI-1 renal) [µM] | GI50 (T-47D breast) [µM] | TGI (T-47D breast) [µM] | GI50 (SN12C renal) [µM] | GI50 (OVCAR-5 ovarian) [µM] | GI50 (UACC-62 melanoma) [µM] | GI50 (786-0 renal) [µM] | GI50 (TK-10 renal) [µM] | GI50 (COLO 205 colon) [µM] | GI50 (U251 CNS) [µM] | GI50 (LOX IMVI melanoma) [µM] | GI50 (CAKI-1 renal) [µM] |
| --- | --- | --- | --- | --- | --- | --- | --- | --- | --- | --- | --- | --- | --- | --- | --- | --- | --- | --- | --- | --- |
| CC(C)C(/C=C/c1ccccc1)=N\NC(=O)N/N=C(/C=C/c1ccccc1)C(C)C | 33.2 | > 100 | > 100 | 41.9 | > 100 | 44.3 | > 100 | > 100 | 30.6 | – | – | – | – | – | – | – | – | – | – | – |
| C/C1=C\CC[C@@](C)(O)[C@H]2C[C@H](CC/C(C)=C/CC1)C1(CC1)C(=O)O2 | 43.2 | 80 | 99.8 | 30.6 | > 100 | > 100 | 37.1 | 28.6 | 43.3 | 36.5 | > 100 | 20.3 | 31.4 | 23.9 | 16.4 | 32.9 | 32.5 | 17.5 | 13.6 | 20.7 |
| O=C(c1ccc(O)cc1)c1ccc(C(=O)c2ccc(O)cc2)cc1 | > 100 | > 100 | > 100 | > 100 | > 100 | > 100 | > 100 | > 100 | – | 4.69 | > 100 | > 100 | > 100 | > 100 | > 100 | > 100 | > 100 | 16.9 | > 100 | – |
| O=C1C2Cc3ccccc3CN2C(=O)N1CN1CCN(CN2C(=O)C3Cc4ccccc4CN3C2=O)CC1 (stereo not drawn) | > 100 | > 100 | > 100 | > 100 | > 100 | > 100 | > 100 | > 100 | > 100 | – | – | – | – | – | – | – | – | – | – | – |
| CC(=O)Nc1ccc(-c2nnc(SCC(=O)Nc3ccccc3[N+](=O)[O-])o2)cc1 | > 100 | > 100 | > 100 | > 100 | > 100 | > 100 | > 100 | > 100 | > 100 | – | – | – | – | – | – | – | – | – | – | – |
| COc1cc2c(cc1OCCCCC(=O)Nc1ccc(-c3nc4ccccc4s3)cc1)N=C[C@@H]1CCCN1C2=O | 9.72 | 11.9 | 3.39 | 3.51 | 7.97 | 3.07 | 6.63 | 2.91 | 5.96 | 1.96 | 10.1 | 2.81 | 3.56 | 1.73 | 1.56 | 3.2 | 1.69 | 1.9 | 1.57 | 2.2 |
| CC(=O)OC1CCC2(C)C(CCC3C2CCC2(C)C(C4=CC(=O)OC4)CCC32)C1 (stereo not drawn) | 99.1 | 55.8 | 2.74 | 39.7 | 22.9 | > 100 | – | > 100 | 33.1 | 13.1 | 45.5 | 11.1 | 11.5 | 1.01 | 15.6 | 5.53 | 12.8 | – | 0.42 | 11.2 |
